From patent US7648993B2, “Methods of treating disorders with Group I mGluR antagonists” (Brown University, priority 2001, dated 2010)
Entries after “also recorded” stand apart in the source; their conditions may differ.

Key:
[1] = system: cultured hippocampal neurons; assay: Acid strip immunocytochemistry for internalized GluR1 (AMPARs); format: cell-based, rat; conditions: for effect on DHPG/mGluR-stimulated internalization of GluR1 (in words): APV 50 μM, cycloheximide 60 μM applied 15 min before DHPG; for effect on basal levels of internalized puncta (in words): without DHPG
[2] = system: hippocampal area CA1 slices; assay: Field potential (FP) recordings in area CA1 of rat hippocampal slices (DHPG-LTD); format: cell-based, Long Evans rats
Method: All animals were used in accordance with procedures approved by the Brown University Institutional Animal Care and Use Committee. Hippocampal slices were prepared from postnatal day 21-30 (P21-30) Long Evans rats (Charles River, Cambridge, Mass.) and mGluR5 knockout mice (Lu et al. 1997) as described previously (Huber et al. 2000). For most experiments, CA3 was removed immediately after sectioning. Slices recovered for 1-2 h at room temperature (rats) or at 30° C. (mice) in artificial cerebrospinal fluid (ACSF) containing (in mM) 124 NaCl, 5 KCl, 1.25 NaH2PO4, 26 NaHCO3, 1 MgCl2, 2 CaCl2, and 10 dextrose, saturated with 95% O2-5% CO2. For recording, slices were placed in a submersion recording chamber and perfused with 30° C. ACSF at a rate of 2 ml/min.
Synaptically evoked field potentials (FPs) were recorded from area CA1 as described previously. Sharp microelectrode and whole cell voltage-clamp recordings were made using Axoclamp 2B and Axopatch 1D amplifiers (Axon Instruments), respectively. Sharp electrodes (80-120 M Ω) were filled with 3 M K-acetate and 10 mM KCl; patch pipettes (3-7 M Ω) were filled with (in mM) 134 K-gluconate, 6 KCl, 4 NaCl, 10 HEPES, 0.2 EGTA, 4 MgATP, 0.3 TrisGTP, and 14 phosphocreatine. The pH of the internal solution was adjusted to 7.25 with KOH, and the osmolarity was adjusted to 300 mOsm with H2O or sucrose. Only experiments in which there was less than a 15% change in series resistance were included in the analysis. Waveforms were filtered at 2 kHz and acquired and digitized at 10 kHz on a PC using Experimenter's Workbench (DataWave Systems, Boulder, Colo.).
Baseline responses were collected every 10-30 s using a stimulation intensity (10-30 μA; 0.2 ms) yielding 50-60% of the maximal response. Experiments in which there was a>5% drift in the response magnitude during the 20-min baseline period before DHPG or LFS were excluded from further analysis. All experiments with mGluR5 KO mice used wildtype littermates as controls and were performed blind to the genotype, later determined by Therion (Troy, N.Y.). LFS consisted of 900 pulses at 1 Hz. PP-LFS consisted of 900 pairs of stimuli (50-ms interstimulus interval) delivered at 1 Hz. In saturation experiments, stimulus duration was increased from 0.2 to 0.4 ms during PP-LFS.
The group data were analyzed as follows: 1) the initial slopes of the FPs and excitatory postsynaptic potentials (EPSPs), or the amplitude of the excitatory postsynaptic currents (EPSCs), for each experiment were expressed as percentages of the preconditioning or DHPG baseline average, 2) the time scale in each experiment was converted to time from the onset of conditioning or DHPG, and 3) the time-matched, normalized data were averaged across experiments and expressed in the text and figures as the means ±SE. Significant differences between groups were determined using an independent t-test or ANOVA performed on a 5-min average taken 1 h after LFS or DHPG application.
R,S-DHPG and D-2-amino-5-phosphonopentanoic acid (D-AP5) was purchased from Tocris (St. Louis, Mo.); all other chemicals were from Sigma Chemical (St Louis, Mo.). DHPG was prepared as a 100 times stock in H2O, aliquoted and stored at −20° C. Fresh stocks were made once a week. A 10 times stock of AP5 was prepared in ACSF and stored at 4° C. These stocks were diluted in ACSF to achieve their final concentrations. Picrotoxin was dissolved directly into ACSF immediately before use.

[3] = system: cultured hippocampal neurons; assay: Immunocytochemical localization of surface synaptic receptors (GluR2, GluR1, NR1, GABAAβ1); format: cell-based, rat; conditions: for GluR1-positive synapses: cycloheximide 60 μM applied 15 min before DHPG where named
From the text: We next determined if the DHPG-induced increase in internalized AMPARs is accompanied by a net decrease in surface-expressed receptor clusters at synapses. At various intervals after DHPG washout, cells were fixed and surface GluR2 or GluR1 was labeled with N-terminal antibodies without permeabilization. The cultures were then permeabilized, and synapses were labeled using an antibody against the presynaptic marker synapsin I or synaptophysin coupled to the appropriate secondary antibody. Under control conditions, most synapses were immunoreactive for AMPAR clusters (GluR2, 80.6±9.0%; n=10 cells, 200 synapses, FIGS. 5A-D; GluR1, 72.5±4.7%; n=15 cells, 225 synapses; FIGS. 5E and F).
Following experimental treatment, low-density cultures were fixed in 4% paraformaldehyde with 4% sucrose for 5 min. Cultures were rinsed in PBS and then blocked in PBS with 20% fetal bovine serum for 1 h. Cultures were stained with N-terminal receptor antibodies overnight at 4° C. (GluR2, 1:100, Chemicon, Ternecula, California; GluR1, 1:100, gift of R. Huganir; NR1, 1:500, Chemicon MAB363; GABAAβ1, 1:100 Santa Cruz Biologicals, Santa Cruz, Calif.). Cultures were then rinsed in blocking buffer containing 0.1% Triton-X for 20 min and exposed to antibodies directed against presynaptic proteins (synapsin 1, 1:1000, Chemicon; synaptophysin, 1:100, Boehringer Manheim, Irvine, Calif.) for 1 h at room temperature. Cultures were then rinsed and exposed to the appropriate fluorescent secondary antibodies (Jackson Immunoresearch, West Grove, Pa.).
Microscopy was performed with a Nikon E800 microscope using a 60×1.4 NA objective (Melville, N.Y.). Fluorescence images were collected with a Sensys cooled CCD camera and analyzed using IP-Labs software. Additional images were collected with a Olympus Flowview confocal microscope with a 60×1.2 NA objective. All analyses were performed blind to the stimulation history of the culture. Microscopic fields had 1-3 neurons displaying smooth soma and generally healthy morphology with multiple distinct processes. Immunofluorescence was analyzed along the proximal 50 μm of 3 or more dendrites per neuron. Immunoreactive puncta were defined as discrete points along the dendrite with fluorescence intensity twice the background staining of the neuron. Five cells were analyzed per culture and 3-6 cultures were analyzed per condition. Separate controls were performed with each experiment and a Student's t-test was used to determine statistical significance. Data are expressed as puncta per 10 μm of dendrite unless stated otherwise.

[4] = system: high-density cultured hippocampal neurons; assay: Biotinylation and quantitative western blot of surface expressed receptors; format: cell-based, rat; conditions: DHPG 50 μM, 5 min; 60 minutes later; cycloheximide 60 μM with DHPG where named
Method: To confirm the effect of mGluR activation on surface AMPARs using an alternative approach, we treated high-density cultures with DHPG (50 μM, 5 min) or control medium and surface receptors were labeled with biotin 60 minutes later. Biotinylated receptors were precipitated and the ratio of surface to total GluR1 was determined by quantitative western blotting. This biochemical analysis confirmed that surface AMPARs are reduced by DHPG treatment to only 56.8±4.0% of the value in control cultures (n=4 in each treatment group; p<0.01; FIG. 6).
Biotinylation experiments were performed as previously described^35. Briefly, 2-week-old high-density cultured hippocampal neurons were treated with either control medium or 50 μM DHPG for 5 min, and incubated for 1 h at 37° C. to allow endocytosis to occur. The sister cultures were placed on ice to stop endocytosis and washed two times with ice-cold artificial cerebrospinal fluid (ACSF) containing 124 mM NaCl, 5 mM KCl, 1.25 mM NaH2PO4, 26 mM NaHCO3, 0.8 mM MgCl2, 1.8 mM CaCl2, 10 mM dextrose, and saturated with 95% O2, 5% CO2. Cultures were then incubated with ACSF containing 1 mg/ml Sulfo-NHS-LC-Biotin (Pierce Chemical Company, Rockford, Ill.) for 30 min on ice. Cultures were rinsed in TBS to quench the biotin reaction. […] Quantitative western blots were performed on both total and biotinylated (surface) proteins using anti-GluR1 C-terminal (1:1000, Upstate Biotechnology, Lake Placid, N.Y.) and anti-NR1 N-terminal antibodies (1:1000, Chemicon). […] Digital images, produced by densitometric scans of autoradiographs on a ScanJet IIcx (Hewlett Packard, Palo Alto, Calif.) with DeskScan II software (Hewlett Packard), were quantified using NIH Image 1.60 software. The surface/total ratio was calculated for each culture, and treatment groups were compared using a paired t-test. […] For display purposes, the data are expressed as the ratio of DHPG to control values.

N[C@](CC1c2ccccc2Oc2ccccc21)(C(=O)O)[C@@H]1C[C@H]1C(=O)O [LY344545]
internalized GluR1 puncta, LY344545 experiment ([1]; DHPG 50 μM, 5 min, LY344545 100 μM): 0.32±0.08 puncta per 10 μm of dendrite | effect on DHPG/mGluR-stimulated internalization of GluR1 (in words) ([1]; LY344545 100 μM): completely blocked

N[C@H](CCCP(=O)(O)O)C(=O)O [AP5, D-2-amino-5-phosphonopentanoic acid]
effect on DHPG/mGluR-stimulated internalization of GluR1 (in words) ([1]; LY344545 100 μM): no effect | effect on the magnitude of DHPG-LTD (in words) ([2]; AP5 50 μM): no effect | magnitude of DHPG-LTD in the presence of AP5 ([2]; AP5 50 μM preincubation, DHPG 50 μM, 5 min): 83±3%

C[C@@H]1C[C@@H]([C@H](O)CC2CC(=O)NC(=O)C2)C(=O)[C@@H](C)C1 [cycloheximide]
effect on DHPG/mGluR-stimulated internalization of GluR1 (in words) ([1]; LY344545 100 μM): significantly inhibited; also recorded: decreases | internalized GluR1 puncta, cycloheximide experiment ([1]; measured at 60 minutes, chx 60 μM applied 15 min before DHPG): 0.76±0.09 puncta per 10 μm of dendrite | effect on basal levels of internalized puncta (in words) [1]: Neither cycloheximide nor anisomycin had any significant effect | GluR1-positive synapses ([3]; 15 min after DHPG): 37.8±3.8% | GluR1-positive synapses ([3]; 60 min after DHPG): 55.7±5.1% | NR1-positive synapses ([3]; 60 minutes after DHPG treatment, with cycloheximide where named): 42+5% | surface NR1 (surface/total), % of the value in control cultures [4]: 79.1±14.5%

N[C@@H](Cn1oc(=O)[nH]c1=O)C(=O)O [quisqualic acid]
LTD of FP, % of baseline ([2]; quisqualic acid 5 μM, 5 min): 81±2% | LTD induced with quisqualic acid in the presence of AP5 ([2]; quisqualic acid 5 μM, with AP5): 79±2%

COc1ccc(C[C@H]2NC[C@H](O)[C@H]2OC(C)=O)cc1 [anisomycin]
effect on DHPG/mGluR-stimulated internalization of GluR1 (in words) ([1]; LY344545 100 μM): blocked | effect on basal levels of internalized puncta (in words) [1]: Neither cycloheximide nor anisomycin had any significant effect
